Measurements: publication PMC10730845, “Endoxifen downregulates AKT phosphorylation through protein kinase C beta 1 inhibition in ERα+ breast cancer” (NPJ Breast Cancer, 2023)

Experiments:
PKCβ1 in MCF7AC1 cells = experiment: Immunoblot of PKCβ1 and pPKCβ1^Ser661, MCF7AC1; assay type: cell-based, human; details: serum starved; for Effect on PMA-stimulated PKCβ1^Ser661 phosphorylation: 2 h pretreatment, 200 nM PMA 20 min
Experimental: (§1) The ENDX hydrochloride utilized in this study was synthesized in collaboration between Mayo Clinic and National Institute of Health (NIH). Estrogen deprived MCF7AC1 were treated with vehicle control or ENDX (National Cancer Institute) for 24 h. For the phorbol 12-myristate 13-acetate (PMA) (LC Laboratories, #P-1680) experiments, MCF7AC1 cells were maintained in serum-free medium for 24 h prior to pretreatment with vehicle or ENDX for 2 h followed by treatment with 20 or 200 nM PMA for 20 min. For the insulin (Sigma-Aldrich, #I0516) experiments, MCF7AC1 and T47D cells were maintained in serum-free medium for 24 h prior to pretreatment with vehicle control or drugs for 2 h followed by treatment with 100 nM insulin for 1 h.
(§2) Protein lysates were prepared using the RIPA lysis buffer system (ChemCruz #sc-24948) and quantified using the DC^TM Protein Assay reagents (Bio-Rad #5000112). Equal amounts of protein lysates were separated on 10% Criterion gels (Bio-Rad #3450112), transferred to PVDF membranes (Bio-Rad #1620177), blocked in TBST-5% milk and probed with primary antibodies listed in Supplementary Table 5, at the indicated dilutions. Membranes were incubated with HRP-conjugated anti-rabbit (CST #7074) or anti-mouse (CST #7076) secondary antibodies and visualized using chemiluminescent West Pico (Thermo Scientific #34580) or West Femto (Thermo Scientific #34096) reagents and a Li-Cor Odyssey® XF imager. Protein lysates from the MCF7AC1 xenograft model were obtained from a previous study. Quantitation of the protein bands signal intensity was performed using the NIH ImageJ image analysis software (https://imagej.nih.gov/ij///index.html). For the quantitation of the phospho protein levels, we first normalized total protein levels to β-actin loading control and used these values to normalize the phospho protein levels and compared change in protein expression levels relative to vehicle control normalized to 1.0. For the quantitation of total protein levels, we normalized the total protein levels to β-actin and compared change in expression levels relative to vehicle control normalized to 1.0. All blots were processed in parallel and derived from the same experiments. Unprocessed immunoblot images are provided in Supplementary Figs. 9–13.

[1] = tested on: AKT phosphorylation in T47D cells; experiment: Immunoblot of AKT phosphorylation, serum starved T47D; assay type: cell-based, human; details: not at 0.01 or 0.10 µM
Experimental: as §1
as §2, with “Protein lysates from the MCF7AC1 xenograft model were obtained from a previous study.” left out, “All blots were processed in parallel and derived from the same experiments. Unprocessed immunoblot images are provided in Supplementary Figs. 9–13.” left out

T47D-LTED cells = experiment: Crystal violet cell viability assay, T47D-LTED; assay type: cell-based, human; details: CSS media, six days; 5 µM
Experimental: Cells were plated at a density of 2000 cells per well. Cell viability of (i) vehicle or drug treated MCF7AC1 and T47D-LTED cells in CSS medium, (ii) siNT or siPKCβ-transfected MCF7AC1 cells in CSS medium and (iii) T47D cells in FBS versus CSS medium were analyzed by crystal violet staining assay after 6 days of treatment or siRNA transfection as previously described. Cell viability was calculated as the average absorbance of the drug treated cells divided by the average absorbance of the vehicle treated cells × 100.
Supplementary Figure 6. […] Cell viability is assessed by the crystal violet assay. b, MCF7AC1 cells were co-treated with vehicle control or 0.01, 0.1 and 5 µM MK-2206 and IncuCyte Annexin V green and NucLight rapid red reagents in CSS medi um for 48 hours. […]
Cells were plated at a density of 2000 cells per well. c, MCF7AC1 cells were treated with vehicle control or 0.01, 0.1 and 5 µM MK-2206 in CSS medium for 24 hours. […] Cell viability is assessed by the crystal violet assay. f, Parental T47D and T47D-LTED cells were processed for protein lysates. […] Cell viability is assessed by the crystal violet assay. h, T47D-LTED cells were co-treated with vehicle control or 0.01, 0.1 and 5 µM MK -2206 and IncuCyte Annexin V green and NucLight rapid red reagents in CSS medium for 48 hours. […] Cell viability is assessed by the crystal violet assay. […]

[2] = tested on: ERα+/HER2- metastatic breast cancer; details: cited from earlier work
[3] = set-up: method as in PMID 24853369, PMID 28977607; details: low (10 mg/kg) and high (50 mg/kg) doses; cited from earlier work

SMILES: CC/C(=C(\c1ccc(O)cc1)c1ccc(OCCNC)cc1)c1ccccc1 [ENDX, Z-endoxifen]
- Effect on PKCβ1^Ser661 phosphorylation in insulin treated cells (PKCβ1 in MCF7AC1 cells; 100 nM insulin 1 h): no effects on PKCβ1^Ser661 phosphorylation
- Effect on PKCβ1 total protein in insulin treated cells (PKCβ1 in MCF7AC1 cells; 100 nM insulin 1 h, ENDX 0.01, 0.1, 5 µM, TAM 0.1 µM, ICI 0.1 µM): reduced PKCβ1 total protein levels
- Effect on PMA-stimulated PKCβ1^Ser661 phosphorylation (PKCβ1 in MCF7AC1 cells; 5 μM): minimal
- Effect on PMA-stimulated PKCβ1^Ser661 phosphorylation (PKCβ1 in MCF7AC1 cells; 0.01, 0.1 μM): no
- Concentration robustly reducing PKCβ1 total protein levels (PKCβ1 in MCF7AC1 cells; PMA-stimulated, 0.01, 0.1 and 5 μM tested): 5 µM
- Concentration blocking insulin-stimulated AKT^Ser473 phosphorylation [1]: 5 µM
- Effect on growth (T47D-LTED cells): inhibited growth
- PFS hazard ratio (HR) ENDX vs TAM, CDK4/6i naïve patients ([2]; 95% CI 0.22–0.80): 0.42
- PFS hazard ratio (HR) ENDX vs TAM, overall ([2]; 95% CI 0.49–1.22): 0.77
- PFS in CDK4/6 inhibitor naïve patients ([2]; CDK4/6i naïve): 7.2 m
- Progression free survival (PFS) overall ([2]; women with ERα+/HER2- metastatic breast cancer progressed on endocrine therapy): 4.3 m
- Effects on the bone [3]: increasing cancellous and cortical bone mass, reducing bone turnover, and protecting against bone loss
